Results as given in PubChem BioAssay AID1963861 (Molecular Pharmacology Branch, DTP, NCI, 2024).

Tested on: 885724-159-R-J1-PDC KRAS PDC multicell spheroid viability
Assay: Anticancer human tumor 885724-159-R-J1-PDC patient-derived pancreatic adenocarcinoma cell line growth inhibition [KRAS2]
Conditions: for IC50: curve of first compound; for viability, T/C: stronger effect = lower value
In short: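 KRAS-mutant tumor cells were grown as spheroids with HUVEC endothelial cells and human MSCs as stroma. Targeted agents were tested alone and with KRAS pathway inhibitors. Doses started at or near clinical Cmax, or 10 microM, descending half-log.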

[1] = second compound 0.1 µM, first compound 0.0316 µM
[2] = second compound 0.1 µM, first compound 0.1 µM
[3] = second compound 0.1 µM, first compound 0.316 µM
[4] = second compound 0.1 µM, first compound 1 µM
[5] = second compound 0.1 µM, first compound 3.16 µM
[6] = second compound 0.1 µM, first compound 10 µM
[7] = second compound 0.316 µM, first compound 0.0316 µM
[8] = second compound 0.316 µM, first compound 0.1 µM
[9] = second compound 0.316 µM, first compound 0.316 µM
[10] = second compound 0.316 µM, first compound 1 µM
[11] = second compound 0.316 µM, first compound 3.16 µM
[12] = second compound 0.316 µM, first compound 10 µM
[13] = second compound 1 µM, first compound 0.0316 µM
[14] = second compound 1 µM, first compound 0.1 µM
[15] = second compound 1 µM, first compound 0.316 µM
[16] = second compound 1 µM, first compound 1 µM
[17] = second compound 1 µM, first compound 3.16 µM
[18] = second compound 1 µM, first compound 10 µM
[19] = second compound 3.16 µM, first compound 0.0316 µM
[20] = second compound 3.16 µM, first compound 0.1 µM
[21] = second compound 3.16 µM, first compound 0.316 µM
[22] = second compound 3.16 µM, first compound 1 µM
[23] = second compound 3.16 µM, first compound 3.16 µM
[24] = second compound 3.16 µM, first compound 10 µM
[25] = second compound 10 µM, first compound 0.0316 µM
[26] = second compound 10 µM, first compound 0.1 µM
[27] = second compound 10 µM, first compound 0.316 µM
[28] = second compound 10 µM, first compound 1 µM
[29] = second compound 10 µM, first compound 3.16 µM
[30] = second compound 10 µM, first compound 10 µM
[31] = second compound 0.1 µM, first compound 0.00316 µM
[32] = second compound 0.1 µM, first compound 0.01 µM
[33] = second compound 0.316 µM, first compound 0.00316 µM
[34] = second compound 0.316 µM, first compound 0.01 µM
[35] = second compound 1 µM, first compound 0.00316 µM
[36] = second compound 1 µM, first compound 0.01 µM
[37] = second compound 3.16 µM, first compound 0.00316 µM
[38] = second compound 3.16 µM, first compound 0.01 µM
[39] = second compound 10 µM, first compound 0.00316 µM
[40] = second compound 10 µM, first compound 0.01 µM
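Also: spheroids exposed to agents for 7 days before readout.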

Compound | IC50 (second compound 0.1 µM) | IC50 (second compound 0.316 µM) | IC50 (second compound 1 µM) | IC50 (second compound 3.16 µM) | IC50 (second compound 10 µM) | viability, T/C [1] | viability, T/C [2] | viability, T/C [3] | viability, T/C [4] | viability, T/C [7] | viability, T/C [8] | viability, T/C [9] | viability, T/C [10] | viability, T/C [13] | viability, T/C [14] | viability, T/C [15] | viability, T/C [19] | viability, T/C [20] | viability, T/C [25] | viability, T/C [26] | also measured
CC(C)NCC(C(=O)N1CCN(c2ncnc3c2C(C)CC3O)CC1)c1ccc(Cl)cc1 (stereo not given) + CNCc1ccccc1-c1csc(C(C)Nc2nc(C)nc3cc(OC)c(OC)cc23)c1 | > 10000 nM | > 10000 nM | 4190 nM | < 31.6 nM | < 31.6 nM | 87.4% | 82.9% | 76% | 70.8% | 87.4% | 77.3% | 67.7% | 72.7% | 94% | 76.9% | 64.9% | 1.32% | 0.9% | 0.17% | 0.16% | viability, T/C [5]: 76.8%; viability, T/C [6]: 57.1%; viability, T/C [11]: 78.2%; viability, T/C [12]: 53.1%; viability, T/C [16]: 66.3%; viability, T/C [17]: 68.8%; viability, T/C [18]: 26.3%; viability, T/C [21]: 1.56%; viability, T/C [22]: 0.7%; viability, T/C [23]: 0.43%; viability, T/C [24]: 0.59%; viability, T/C [27]: 0.17%; viability, T/C [28]: 0.31%; viability, T/C [29]: 0.16%; viability, T/C [30]: 0.23%
CCN1CCN(Cc2ccc(Nc3ncc(F)c(-c4cc(F)c5nc(C)n(C(C)C)c5c4)n3)nc2)CC1 + CNCc1ccccc1-c1csc(C(C)Nc2nc(C)nc3cc(OC)c(OC)cc23)c1 | > 1000 nM | > 1000 nM | > 1000 nM | < 3.16 nM | < 3.16 nM | 92.2% | 86.8% | 87.2% | 96.9% | 78.2% | 83.4% | 94% | 90.9% | 76.6% | 78.3% | 74.8% | 0.79% | 4.1% | 0.2% | 0.19% | viability, T/C [31]: 110%; viability, T/C [32]: 100%; viability, T/C [33]: 106%; viability, T/C [34]: 94.8%; viability, T/C [35]: 95%; viability, T/C [36]: 96.3%; viability, T/C [16]: 71.2%; viability, T/C [37]: 0.67%; viability, T/C [38]: 1.81%; viability, T/C [21]: 0.68%; viability, T/C [22]: 0.56%; viability, T/C [39]: 0.19%; viability, T/C [40]: 0.32%; viability, T/C [27]: 0.19%; viability, T/C [28]: 0.28%
CCNC(=O)CC1N=C(c2ccc(Cl)cc2)c2cc(OC)ccc2-n2c(C)nnc21 (stereo not given) + CNCc1ccccc1-c1csc(C(C)Nc2nc(C)nc3cc(OC)c(OC)cc23)c1 | > 10000 nM | > 10000 nM | > 10000 nM | < 31.6 nM | < 31.6 nM | 122% | 114% | 77.3% | 63.2% | 118% | 113% | 81.9% | 61.8% | 110% | 116% | 79.1% | 1.45% | 11.5% | 0.33% | 0.2% | viability, T/C [5]: 53.7%; viability, T/C [6]: 52.5%; viability, T/C [11]: 55.1%; viability, T/C [12]: 48.3%; viability, T/C [16]: 59.7%; viability, T/C [17]: 52.6%; viability, T/C [18]: 49.7%; viability, T/C [21]: 1.37%; viability, T/C [22]: 1.56%; viability, T/C [23]: 0.16%; viability, T/C [24]: 0.43%; viability, T/C [27]: 0.25%; viability, T/C [28]: 0.16%; viability, T/C [29]: 0.18%; viability, T/C [30]: 0.26%
Cn1ncnc1[C@H]1c2n[nH]c(=O)c3cc(F)cc(c23)N[C@@H]1c1ccc(F)cc1 + CNCc1ccccc1-c1csc(C(C)Nc2nc(C)nc3cc(OC)c(OC)cc23)c1 | > 100 nM | > 100 nM | > 100 nM | < 0.316 nM | < 0.316 nM | 80.2% | 80% |  |  | 77.4% | 71.3% |  |  | 74.2% | 76.9% |  | 0.71% | 0.75% | 0.22% | 0.48% | viability, T/C (second compound 0.1 µM, first compound 0.000316 µM): 100%; viability, T/C (second compound 0.1 µM, first compound 0.001 µM): 104%; viability, T/C [31]: 88.8%; viability, T/C [32]: 99.5%; viability, T/C (second compound 0.316 µM, first compound 0.000316 µM): 92.6%; viability, T/C (second compound 0.316 µM, first compound 0.001 µM): 89.2%; viability, T/C [33]: 84.1%; viability, T/C [34]: 98%; viability, T/C (second compound 1 µM, first compound 0.000316 µM): 82.5%; viability, T/C (second compound 1 µM, first compound 0.001 µM): 83.4%; viability, T/C [35]: 91.2%; viability, T/C [36]: 78.5%; viability, T/C (second compound 3.16 µM, first compound 0.000316 µM): 1.47%; viability, T/C (second compound 3.16 µM, first compound 0.001 µM): 1.04%; viability, T/C [37]: 0.71%; viability, T/C [38]: 0.73%; viability, T/C (second compound 10 µM, first compound 0.000316 µM): 0.51%; viability, T/C (second compound 10 µM, first compound 0.001 µM): 0.45%; viability, T/C [39]: 0.13%; viability, T/C [40]: 0.3%
